Assay [1] deals with δ and εPKC isozymes. Put plainly: PKC isozyme translocation and degradation in cardiac myocytes. In kind it is cell-based, rat. The source says: This peptide-induced translocation was followed by degradation of δ and εPKC isozymes.
Assay [2] has as its system PKC-mediated germinal vesicle breakdown (GVBD) in Xenopus oocytes. Put plainly: PKC-mediated Xenopus oocyte maturation (germinal vesicle breakdown, GVBD) after peptide microinjection. Format: cell-based. The procedure:
Exposure to insulin induces maturation in Xenopus oocytes via a PKC-dependent pathway (Smith, et al., 1992). The maturation response may be quantified by monitoring the appearance of a white spot in the animal hemisphere of the oocyte, indicating germinal vesicle breakdown (GVBD) and maturation. To assess the effects of RACK1 WD-40-derived peptides on insulin-induced PKC-mediated maturation, 50 nl of a 20 mM NaCl solution containing the indicated peptides [peptide I (SEQ ID NO:1; .circle-solid.), peptide rVI (SEQ ID NO:7; .box-solid.), or injection solution (.quadrature.)] […] One hour following the peptide injections, the oocytes were exposed to a solution containing insulin (8.25 μg/ml) for 2 minutes (t=0). 10-15 oocytes were used for each sample.
The data, representative of three independent experiments, are expressed as the percent of oocytes with GVBD following insulin exposure and are plotted as a function of time in FIG. 5.

The subject of assay [3] is PKC. Put plainly: PKC autophosphorylation. Format: biochemical, rat. As to conditions: 10 μM peptide; no PS, DG, calcium. The procedure:
Rat brain PKC (~10 nM) was incubated with mild agitation in a final volume of 250 μl of overlay buffer, as in Example 1 either with anti-βPKC pseudosubstrate antibodies (1:10 dilution, Life Technologies, Gaithersburg, Md.) or with the indicated peptide (10 μM). Where indicated, PS (50 μg/ml), DG (0.8 μg/ml) and CaCl2 (1 mM) were also added. The amount of autophosphorylation was determined after 2 hours for the reaction with the anti-pseudosubstrate antibodies, or after 15 minutes for the other samples. 50 μl of a buffer comprised of 20 mM Tris-HCl (pH 7.5), 20 mM MgCl2, 20 μM ATP and 5 μci/ml [γ-^32 P]ATP. The mixture was incubated for 15 minutes at room temperature and the reaction was stopped by adding 60 μl sample buffer (see Example 9). The samples were then boiled for 10 minutes, loaded onto a 10% SDS-PAGE mini gel and electrophoresed. The gel was fixed with 50% methanol and 10% acetic acid for 1 hour, and the autophosphorylation of PKC was determined by autoradiography.

The target of assay [4] is T1, βPKC (Rattus norvegicus, UniProt P68403). The assay is described as follows: Sensitivity of βPKC to Arg-C endopeptidase (nicking). To be noted: 2.5 μg/ml PS and 50 μM CaCl2; peptide 10 μM; Arg-C 5 units/ml. Format: biochemical. Further details: All the solutions contained 5 nM rat brain PKC in peptide overlay buffer; from tissue; host or cells: rat brain. The source says: Upon activation of PKC, a pseudosubstrate autoinhibitory sequence at the N-terminus of the molecule dissociates from the catalytic site and becomes sensitive to endopeptidase Arg-C (Orr, et al.). In the absence of PKC activators, exposure of the 80 kDa βPKC to endopeptidase Arg-C has no effect on the enzyme (see FIG. 7, lane 1). In the presence of the PKC activators PS, DG and calcium, however, exposure of βPKC to Arg-C results in a "nicking" of the PKC (i.e. limited proteolysis generating a 78 kDa fragment and several small fragments (see FIG. 7, lane 2)). Continued exposure to Arg-C results in the disappearance of βPKC (Orr, et al.). The present experiment tests whether peptides derived from the WD-40 region of RACK1 alter the sensitivity of βPKC to endopeptidase Arg-C.
The methods used to assay Arg-C sensitivity are a modification of methods described by Orr, et al. Rat brain PKC (~5 nM) was incubated at room temperature in 500 μl of 20 mM Tris-HCl buffer (pH 7.5) alone or with Arg-C (5 units/ml) in the presence or absence of the indicated peptides (final concentration 10 μM or as indicated), PS, DG, and calcium (as indicated). 50 μl aliquots were removed into 20 μl of sample buffer during the reaction as indicated (samples in all the lanes were incubated for 30 minutes, except lanes 5, and 6, which were incubated for 5 and 15 minutes, respectively). The samples were boiled for 10 minutes at 80° C. and loaded onto 8% SDS-PAGE. βPKC was detected by Western blot analysis using anti-βPKC antibodies as described in Examples 6 and 8.
PKC was incubated for the indicated time alone (lane 1) or in the presence of Arg-C (lanes 2-9), with DG (0.8 μg/ml), PS (50 μg/ml) and CaCl2 (1 mM; lane 2), with PS (50 μg/ml) and CaCl2 (1 mM; lane 3), with PS (2.5 μg/ml) and CaCl2 (50 μM; lane 4); with PS (2.5 μg/ml), CaCl2 (50 μM) and with either peptide rVI (SEQ ID NO:7; 10 μM; lanes 5-7), control peptide (SEQ ID NO: 9; lane 8) or with peptide I (SEQ ID) NO:1; lane 9).

Assay [5] addresses T1, βPKC. Put plainly: Overlay assay: binding of PKC to immobilized recombinant RACK1. Further details: from tissue; host or cells: PKC from rat brain; RACK1 made in-house in TB1 E. coli (pMAL-c2). The procedure: (§1) Purified recombinant RACK1 protein (100-250 μg per lane, produced as detailed in Example 2) was subjected to SDS/PAGE and blotted onto nitrocellulose membranes (Ausubel). The nitrocellulose membranes were cut into strips, which were incubated for 0.5 hr in overlay buffer (Example 1) in the presence or absence of a mixture of PKC isozymes (α, β, γ, ε and .zeta., ~10 nM each final concentration) and PKC activators (60 μg/ml phosphatidylserine (PS), 2 μg/ml diacylglycerol (DG), and 1 mM CaCl2). Unbound material was removed by five washes, 5-min each, in overlay wash buffer. Where indicated, PKC activators were present during the incubation of PKC with the nitrocellulose strips. The conditions for each sample and corresponding results are presented in part D below.
PKC bound to RACK1 immobilized on nitrocellulose strips was detected as follows. […]
The concentration dependence of PKC binding to RACK1 was characterized with βPKC, since this isozyme is a major component of the PKC mixture used for the overlay assay. The mean half maximal binding was ~0.375 nM, and maximal binding was ~4 nM (n=3; values reflect binding of βPKC isozyme in the presence of other PKC isozymes and was determined by scanning autoradiograms in the linear range of detection, as described in Mochly-Rosen, et al., (1991).

The test system of assay [6] is PKC binding to RACK1. The assay is described as follows: Overlay / overlay-extraction assay: inhibition of PKC binding to recombinant RACK1 by peptides. Also on record: species or system rat. To be noted: for inhibition of the binding of PKC to RACK1, peptides rI-rVII: overlay assay, concentration not given. The procedure:
as §1
The variation in the overlay protocol consisted of incubating the putative binding peptides with a mixture of PKC isozymes for 15 minutes at room temperature before the mixture was used to contact the nitrocellulose strips containing immobilized RACK1.
Nitrocellulose strips containing immobilized RACK1, that had been contacted with a solution containing a mixture of PKC isozymes, were washed and the area corresponding to the 36 kDa (RACK1-containing) band was cut out. The pieces (containing PKC/RACK1 complexes) were incubated with sample buffer for 10 minutes at 80° C. The sample buffer and the nitrocellulose pieces were then placed in wells in the PAGE gel and subjected to SDS-PAGE to elute the bound proteins. The gel was blotted onto nitrocellulose and a Western blot analysis was carried out using the mixture of antibodies (specific for PKC α, β, γ, δ, ε and .zeta. isozymes) described in Example 1 part B. Bound antibodies were detected by ^125 I-protein A.
Peptides derived from or homologous to WD-40 repeats of RACK1 were tested for their ability to inhibit PKC binding to recombinant RACK1. Binding of PKC to RACK1 was carried out using a variation of the overlay procedure described in Example 3 part B. In the experimental samples, peptides were incubated with a solution containing a mixture of rat brain PKC isozymes (~10 nM each) for 15 minutes at room temperature.
Following completion of the modified overlay protocol, the samples were subjected to the overlay-extraction protocol detailed in part B, above.

Assay [7] concerns PKC. The assay is described as follows: Histone type IIIs phosphorylation by PKC. In kind it is biochemical. As to conditions: peptide rVI 10 μM; PKC ~10 nM. The procedure:
Histone type IIIs (Sigma Chemical Company, St. Louis, Mo.) was phosphorylated by PKC (~10 nM) in the absence (lane 1) and presence of peptide rVI (10 μM) (lanes 2 and 3) and in the presence and absence of DG (0.8 μg/ml), PS (50 μg/ml) and CaCl2 (1 mM) (lane 3). The results are expressed as percentage of control that is the amount of Histone phosphorylation by PKC in the presence of DG (0.8 μg/ml), PS (50 μg/ml) and CaCl2 (1 mM). The results are the average±SEM of two independent experiments. PKC was first incubated with the peptide rVI (10 μM) for 15 minutes in overlay buffer as described above. Histone type IIIs (40 μg/ml) was added in Tris-HCl (20 mM), MgCl2 (20 mM), ATP (20 μM) and [γ-^32 P]ATP (5 μci/ml) with or without PS (50 μg/ml), DG (0.8 μg/ml) and CaCl2 (1 mM). Histone phosphorylation was determined by autoradiography as above.

[8] abbreviates: 50 μM peptide microinjected, insulin 8.25 μg/ml.
Setting [9] is: peptide introduced into cardiac myocytes.

“Also recorded” adds a separate entry of the source.

As to `NC[C@H](O)c1ccc(O)c(O)c1` [norepinephrine, reference compound], the “translocation of δ and εPKC isozymes from the cytosolic to the particulate fraction” value in assay [1] (NE, 2 μM) is “causes translocation of δ and εPKC isozymes from the cytosolic to the particulate fraction”.
Take “control peptide: control peptide (SEQ ID NO:9) used as negative control (LKGKIL) [reference compound]”: in assay [2] (setting [8]), the “delay to onset of maturation after exposure to insulin” value lay in the range of 4 to 5 h and the “time at which plateau of GVBD is reached” value fell in the range of 10 to 12 h. Moreover, the “plateau of % GVBD following insulin exposure” value in assay [2] (50 nl of 50 μM peptide microinjected, insulin 8.25 μg/ml) is given as 85-90 % GVBD. The “induction of PKC autophosphorylation in the absence of PKC activators” value in assay [3] is “Neither peptide I nor control peptide induced PKC autophosphorylation”. The “nicking of βPKC by Arg-C (78 kDa fragment) at low concentrations of activators” value in assay [4] is “nicking of βPKC did not occur”.
Turning to maltose binding protein, the “binding of PKC to control proteins” value in assay [5] is given as “did not bind PKC”.
On to “peptide rI: synthetic peptide based on the corresponding region in WD-40 repeat I of RACK1 (VTQIATT)”, for which the “inhibition of the binding of PKC to RACK1, peptides rI-rVII” value (“inhibition of the binding of PKC” below) in assay [6] is recorded as “effective inhibitors”.
On the same count and under the same terms, the entry for “peptide rII: synthetic peptide based on the corresponding region in WD-40 repeat II of RACK1 (FVSDVVI)” is “effective inhibitors”.
In the case of “peptide rIII: seven amino acid peptide identical to a segment of RACK1 WD-40 repeat III (DVLSVAF)”, the “effect on NE-induced translocation of PKC isozymes” value in assay [1] (norepinephrine 2 μM, peptide introduced into cardiac myocytes) is “further enhanced”. Also, in assay [1] (setting [9]), the “degradation of δ and εPKC isozymes” value was “followed by degradation of these activated isozymes”; the “translocation / distribution of δ and εPKC isozymes in the absence of hormone stimulation” value was “caused an immediate translocation of δ and εPKC isozymes”. The “relative effectiveness in inhibiting PKC binding to RACK1” value in assay [6] (10 μM peptide) is listed as “somewhat more effective than peptide rVI”. For the same compound, the “inhibition of PKC binding to RACK1 (FIG. 3)” value in assay [6] (10 μM peptide preincubated with PKC) is given as “inhibit the binding of PKC to RACK1”. Further, the “inhibition of the binding of PKC” value in assay [6] is listed as “inhibited the binding of PKC to RACK1”. The “effect on insulin-induced oocyte maturation” value in assay [2] (peptide microinjected (rVI 50 μM; rIII 50 and 500 μM)) is reported as “enhances insulin-induced oocyte maturation; also recorded: potentiated the effects of insulin on oocyte maturation”. Besides, the “fraction of oocytes exposed to insulin that reach maturation” value in assay [2] (peptide microinjected, insulin) is listed as roughly 100%. Besides, the “nicking of βPKC by Arg-C (78 kDa fragment) at low concentrations of activators” value in assay [4] is reported as “resulted in the appearance of the 78 kDa nicked PKC fragment”. In assay [7], the “induction of PKC-mediated histone phosphorylation in the absence of PS, DG and calcium” value is “similarly induced histone phosphorylation”.
With “peptide rV: synthetic peptide based on the corresponding region in WD-40 repeat V of RACK1 (GYLNTVT)”, the “inhibition of the binding of PKC” value in assay [6] is recorded as “lesser inhibitory effect”.
Still for that read-out and setting: for “peptide rVII: synthetic peptide based on the corresponding region in WD-40 repeat VII of RACK1 (PQCTSLA)” the value was “no inhibition”.
The same measure, in the same setting: for “rIV: synthetic peptide based on the corresponding region in WD-40 repeat IV of RACK1 (VSCVRFS)” the value was “lesser inhibitory effect”.
